# Legend:
# [1] = test system: HCN4-GFP positive cells derived from H7 embryoid body (pacemaker cells); assay: Patch clamp measurement of the beating rate (spontaneous excitation) of the pacemaker cells; assay type: cell-based, human; details: for effect on beating rate of the pacemaker cells (in words): drug added to perfusion solution, patch clamp
# Procedure: Patch clamp: Cells which had been collected by cell sorting were seeded on gelatin-coated, 8-mm diameter cover slips (Warner Instruments) in a number of about 1,500 cells. On or after the next day, a patch clump method was used to observe the automaticity and to analyze functions of ion channels.
# The quantification of electrical activities by a patch clump method and of contraction by video recording was carried out.
# The quantification of electrical activities by a patch clump method was carried out.
# It was ascertained that the beating rate of the pacemaker cells according to the present invention was increased by means of isoproterenol, a sympathetic stimulant, and decreased by means of carbachol, a parasympathetic stimulant. In these experiments, a patch clamp method was used to measure directly electrical phenomena (spontaneous excitation) from the pacemaker cells. To the perfusion solution were added isoproterenol, a sympathetic stimulant, which increased [sic], and then carbachol, a parasympathetic stimulant, to examine their effects.
# [2] = test system: heart of a rat with atrioventricular block; assay: Intraperitoneal isoproterenol in rat with atrioventricular block implanted with pacemaker cells, electrocardiogram; assay type: in vivo; details: isoproterenol injected into the peritoneal cavity; AVB rat with implants; FIG. 19
# Procedure: Male ICR rats of 10 weeks old were used. Rats were administered with a 0.2 ml injection of an anesthetic (0.2% pentobarbital, MiliQ). Breathing assistance was provided by a mechanical ventilator and electrocardiogram monitoring was performed. A thoracotomy was made using an electrosurgical knife and 15 μl of 30% glycerol was injected using a microsyringe, into a place where the pulmonary artery is attached to the heart. It was ascertained, from the electrocardiogram, whether AVE wave forms (decrease in the beating rate, independent P and QRS waves) appeared when the injection allowed the atrioventricular node to be damaged. If AVB wave forms were not identified, injection of glycerol was done again. Thirty minutes after AVB wave forms were identified, the chest was closed after AVB wave forms were identified on the electrocardiogram. The ventilator was removed from each of the rats, which were subjected to oxygen inhalation at 37° C. When recovered from anesthesia, the rats were returned back to their cages. Pacemaker cells which were GFP positive cells were selected and collected by cell sorting. The pacemaker cells were collected in conical tubes, and then centrifuged at 1,000 rpm for 5 minutes to form a cell pellet, which was then suspended in differentiation induction medium. […]
SMILES,"beating rate in the presence of carbachol ([1]; carbachol in perfusion solution, after isoproterenol washout, before: 17 beats per 10 seconds, FIG. 16) [beats per 10 seconds]","beating rate after washing out of carbachol ([1]; carbachol washed out, FIG. 16) [beats per 10 seconds]",effect on beating rate of the pacemaker cells (in words) [1],"beating rate in the presence of isoproterenol ([1]; 10^−5 M isoproterenol in perfusion solution, before: 54 beats per 10 seconds, FIG. 16) [beats per 10 seconds]","beating rate after washing out of isoproterenol ([1]; washout after 10^−5 M isoproterenol, FIG. 16) [beats per 10 seconds]",ventricular rhythm resulting from the implanted pacemaker cells after isoproterenol [2]
C[N+](C)(C)CCOC(N)=O [carbachol],8,14,decreased,–,–,–
CC(C)NCC(O)c1ccc(O)c(O)c1 (stereo not shown) [isoproterenol],–,–,increased,61,45,accelerated (tachycardia)

# From US20120231450A1, “NOVEL PACEMAKER CELL” (priority 2009, published 2012)
